Active and inactive are the calls of the source.
How the values were obtained:
Type in all cases: functional, organism-based
Pseudomonas sp. = assay: Antibacterial activity against Pseudomonas sp. by paper disk diffusion method
Escherichia coli = assay: Antibacterial activity against Escherichia coli by paper disk diffusion method
[1] = system: Staphylococcus epidermidis; assay: Antibacterial activity against Staphylococcus epidermidis by paper disk diffusion method
Staphylococcus aureus = assay: Antibacterial activity against Staphylococcus aureus by paper disk diffusion method
Salmonella sp. = assay: Antibacterial activity against Salmonella sp. by paper disk diffusion method

Measured: Activity

C=C[C@@]1(C)CC[C@H]2[C@]3(C)[C@@H](OC(C)=O)C[C@@H](Br)C(C)(C)[C@H]3[C@@H](O)C[C@]2(C)O1
inactive: all assays above

C=C[C@@]1(C)CC[C@H]2[C@]3(C)C(=O)C[C@@H](Br)C(C)(C)[C@H]3[C@@H](O)C[C@]2(C)O1
inactive: all assays above
